Where “and” joins values, the source holds several entries; their conditions need not be identical. Equal values may be shown once. Read-outs that look alike come from different tables or passages of the source.
Columns and labels:
Tulane virus (TV) [1] = tested on: Tulane virus (TV)
TV = conditions: cited from earlier work
Tulane virus (TV) [2] = tested on: Tulane virus (TV); remark: listed apart in the source
MNV = conditions: cited from earlier work
FCV = conditions: cited from earlier work
[3] = tested on: Tulane virus capsid binding to Human Blood Group Antigen (HBGA) receptor
Tulane virus (TV) [4] = tested on: Tulane virus (TV); remark: listed apart in the source

CCO [EtOH, ethanol]
detection of virus genome or amplification of virus (Tulane virus (TV) [1]): neither virus genome nor amplification of virus was detectable | EtOH concentration required to exceed 4 D reduction in virus titer (TV): 50-70% | Ct (HuNoV (GII.4 NoV)): 40.7 ± 1.4 | Reduction(%) (HuNoV (GII.4 NoV)): 99.3 ± 0.8% | completeness of inactivation of HuNoV (HuNoV (GII.4 NoV)): not complete | reduction in copy number (HuNoV (GII.4 NoV)): 99.33% and 88.5% and 99.3% | reduction in copy numbers (HuNoV (GII.4 NoV)): < 3 log | ΔCt (HuNoV (GII.4 NoV)): 9.7 | detection of virus genome or amplification of virus (Tulane virus (TV) [2]): neither virus genome nor amplification of virus was detectable | EtOH concentration required to exceed 4 D reduction in virus titer (MNV): 60% | EtOH concentration required to exceed 4 D reduction in virus titer (FCV): 70% | Binding of viral capsid to Human Blood Group Antigen (HBGA) [3]: significantly reduced | reduction of TV titer (Tulane virus (TV) [4]): over 99.5%

— patent US20150093744A1 (priority 2013, published 2015)
